Key:
[1] = Clinical study in pain patients with upper extremity CRPS; format: in vivo, human; conditions: 1,200 mg as a continuous oral daily dose
Description: Selective cytokine inhibitory drugs of the invention such as 3-(3,4-dimethoxy-phenyl)-3-(1-oxo-1,3-dihydro-isoindol-2-yl)-propionamide are administered in an amount of 400 to 1,200 mg per day to patients with pain syndromes for three to six months. A baseline evaluation is performed for the effect of the drug treatment on pain intensity, impact of pain on activities of daily living, and consumption of other pain medications.
In a specific embodiment, clinical studies are performed in pain patients who have upper extremity CRPS that has not responded to conventional physical therapy and has been present for at least one year. In the early course of their diseases, patients have clear evidence of autonomic dysfunction with formal autonomic testing (Quantitative sudomotor axon reflex test (QSART), resting sweat output, and thermography). If this is unavailable, documentation of clinical signs indicates autonomic dysfunction (changes in hydration, temperature, skin, nail or hair growth) along with symptoms of allodynia and swelling. […] Responses are assessed using standard pain scales, e.g., Numeric Pain Scale Assessment (VAS) for pain, quality of life using the McGill Index and objective signs in clinical examination such as a visible reduction of swelling, sweating, discolorations in skin color, temperature changes, changes in skin, hair and nail growth, and fine motor movements. […]

[2] = Cardiovascular and respiratory function in anesthetized dogs; format: in vivo; conditions: anesthetized Beagle dogs; ascending doses 400, 800 and 1,200 mg/kg/day by infusion through the jugular vein; compared to vehicle control group
Description: The effects of 3-(3,4-dimethoxy-phenyl)-3-(1-oxo-1,3-dihydro-isoindol-2-yl)-propionamide on cardiovascular and respiratory function are investigated in anesthetized dogs. Two groups of Beagle dogs (2/sex/group) are used. One group receives three doses of vehicle only and the other receives three ascending doses of 3-(3,4-dimethoxy-phenyl)-3-(1-oxo-1,3-dihydro-isoindol-2-yl)-propionamide (400, 800, and 1,200 mg/kg/day). In all cases, doses of 3-(3,4-dimethoxy-phenyl)-3-(1-oxo-1,3-dihydro-isoindol-2-yl)-propionamide or vehicle are successively administered via infusion through the jugular vein separated by intervals of at least 30 minutes.
The cardiovascular and respiratory changes induced by 3-(3,4-dimethoxy-phenyl)-3-(1-oxo-1,3-dihydro-isoindol-2-yl)-propionamide are minimal at all doses when compared to the vehicle control group. 5.3 Studies Using Animal Pain Models

[3] = system: TNF-α production; assay: Inhibition of TNF-α production following LPS-stimulation of human PBMC and human whole blood, in vitro; format: cell-based; conditions: in vitro studies; compared with thalidomide
Description: In a specific embodiment, the pharmacological properties of 3-(3,4-dimethoxy-phenyl)-3-(1-oxo-1,3-dihydro-isoindol-2-yl)-propionamide are characterized in in vitro studies. Studies examine the effects of the compound on the production of various cytokines. Inhibition of TNF-α production following LPS-stimulation of human PBMC and human whole blood by the compound is investigated in vitro. The IC50's of the compound for inhibiting production of TNF-α are measured. […] The pharmacological effects of 3-(3,4-dimethoxy-phenyl)-3-(1-oxo-1,3-dihydro-isoindol-2-yl)-propionamide may derive from its action as an inhibitor of the generation of inflammatory cytokines.

## COc1ccc(C(CC(N)=O)N2Cc3ccccc3C2=O)cc1OC (stereo not drawn) [3-(3,4-Dimethoxy-phenyl)-3-(1-oxo-1,3-dihydro-isoindol-2-yl)-propionamide]
[1]
  tolerability: well-tolerated
[2]
  cardiovascular and respiratory changes: minimal
[3]
  pharmacological activity profile, potency relative to thalidomide: five to fifty times more potent than thalidomide
